According to PubChem BioAssay AID2305 (GlaxoSmithKline (GSK), 2010):

Each compound was assayed on P. falciparum 3D7 growth, pLDH absorbance (assay: blood-stage malaria parasite growth potency – strain 3D7, dose response (AID 2305)).
For CC(C)(C)CCN1CCC(CNC(=O)c2cc(-c3cccc(C(F)(F)F)c3)cs2)C1 (centres undefined), the IC50 was 890 nM. Nc1ncc(-c2ccsc2)c2ccc(-c3ccc4cn[nH]c4c3)cc12 showed an IC50 of 810 nM. CC(C)(C)Nc1nc(Nc2cccc([N+](=O)[O-])c2)nc(-n2ccnc2)n1 showed an IC50 of 810 nM. For COc1cc(NC(=O)c2ccc(-c3ccc(C(C)=O)cc3)s2)ccc1OCCN1CCCC1, the IC50 was 150 nM. CCCCCc1cc(OC(C)=O)c2c(c1)OC(C)(C)C=C2C1=CCN(Cc2ccccc2)CC1 gave an IC50 of 930 nM. With CC(C)C[C@H](NC(=O)c1cc(-c2ccc(C(C)(C)C)cc2)no1)C(=O)O (tested in a mixture with another compound) the IC50 was 190 nM. CCCc1cc(Cc2cnc(N)nc2N)cc(OC)c1OC showed an IC50 of 990 nM. Compound Cc1[nH]c(C)c(-c2ccc(OCCn3cnc(Cl)c3Cl)cc2)c(=O)c1Br has an IC50 of 850 nM. Compound Cc1ccc(CNC(=O)[C@H](Cc2ccccc2)Nc2cc(C)nc(NCc3ccccc3C)n2)cc1 has an IC50 of 800 nM. In the case of O=C(N[C@@H](Cc1ccccc1)C(=O)NCCN1CCCCC1)c1ccc(O)c(-c2ccc(Cl)c(Cl)c2)c1, the IC50 is reported as 1520 nM. In the case of CC(C)[C@@H]1c2ccc(O)cc2C[C@H]2C(=O)N(C3CCCCC3)C(=O)N21, the IC50 is reported as 880 nM. Compound Cc1cccc2[nH]c(-c3ccc(-c4cccc(CN5CCCC(N)C5)c4)s3)nc12 (centres undefined) has an IC50 of 540 nM. COCCSc1ccc(CC(C)NCC(O)c2cccc(Cl)c2)cc1 (centres undefined) gave an IC50 of 760 nM. In the case of Cc1cc(N)nc2ccc(CNCCc3ccccc3Br)cc12, the IC50 is reported as 120 nM. Compound N#Cc1ccc(NC(=O)c2ccc(C(=O)NCCCCN3CCC(c4ccc5c(c4OCCOC4CCCCO4)CCCC5)CC3)cc2)cc1 (centres undefined) has an IC50 of 580 nM. CN(C)c1cc(NN=Cc2cc(Cl)ccc2O)nc(N(C)C)n1 gave an IC50 of 700 nM. Work on CCN(CC)CCOC(=O)C(OC)(c1ccccc1)c1ccccc1 yielded an IC50 of 1020 nM. For Cc1ccc(OC2CCN(CCCCC3(C)C(=O)Nc4ccccc43)CC2)cc1 (centres undefined), the IC50 was 740 nM. Cc1ccccc1CNc1noc(-c2c(-c3ccccc3)noc2C)n1 gave an IC50 of 900 nM. CN(C)CCOc1cc(O)c2c(c1)OC(C)(C)C=C2c1cccs1 gave an IC50 of 290 nM. CS(=O)(=O)c1ccc(-c2nc(NCC3CCCCC3)cc(C(F)(F)F)n2)cc1 showed an IC50 of 670 nM. Work on CN1CCN(c2cccc(-c3nnc(-c4ccc(OCC(=O)NCc5ccc(C(F)(F)F)cc5)c([N+](=O)[O-])c4)o3)c2)CC1 yielded an IC50 of 660 nM. COc1ccc(-c2ccc(NC(=O)c3ccc(F)cc3)cc2)cc1CNC(C)C showed an IC50 of 760 nM. In the case of O=[N+]([O-])c1ccc(C=NNc2nc3ccccc3[nH]2)cc1, the IC50 is reported as 280 nM. N#Cc1ccc(N2CCN(Cc3ccc(-c4ccc(-c5nc6ccc(C(F)(F)F)cc6[nH]5)s4)cc3)CC2)nc1 gave an IC50 of 810 nM. COc1ccc2nc3cc(Cl)ccc3c(N)c2c1 was tested, and the IC50 was 170 nM. With CC(C)CCNc1nc(NCCCc2ccccc2)c2cc(O)ccc2n1 the IC50 was 170 nM. Work on Cn1cnc(CCNC(=O)c2ccc(-c3cccc(-c4nc5ccc(F)cc5[nH]4)c3)cc2)c1 yielded an IC50 of 680 nM. In the case of COc1cc(F)c2ncc(Cl)c(CCN3CCC(NCc4ccc5c(c4)NC(=O)CO5)CC3)c2c1, the IC50 is reported as 230 nM. CC(CO)(CO)NCc1cc2c3ccccc3c(CNC(C)(CO)CO)cc2c2ccccc12 showed an IC50 of 720 nM. COc1cc2nc(N3CCC(CNC(=O)c4cccc5cccnc45)CC3)nc(N)c2cc1OC gave an IC50 of 1700 nM. In the case of CC(=O)Nc1ccc(OCCCCN(Cc2ccccc2C(F)(F)F)c2ccc(C#N)c(C(F)(F)F)c2)c(Cl)c1, the IC50 is reported as 980 nM. O=C(/C=C/c1ccc2ccccc2c1)NCC1(c2ccc(-c3ccccc3)cc2)CCOCC1 showed an IC50 of 1520 nM. Compound COc1ccccc1-n1c(-c2ccc3ccccc3c2)csc1=NC(=O)c1ccccc1 has an IC50 of 200 nM. For COc1ccccc1C(C)NCC(=O)Nc1ccccc1Sc1ccccc1 (centres undefined), the IC50 was 1100 nM. For CN1CCC(NCc2ccc(-c3cccc(-c4nc5ccccc5[nH]4)c3)cc2)CC1, the IC50 was 130 nM. Work on c1cnc2ccc(NCc3ccc(-c4ccc(CNC5CCCC5)cc4)cc3)cc2c1 yielded an IC50 of 870 nM. CNS(=O)(=O)c1ccc(NC(=O)c2cc(-c3cccnc3)nc3ccc(Br)cc23)cc1 gave an IC50 of 910 nM. Compound CCN(CC)CCON=Cc1cc(C)c2[nH]c3ccc(OCc4ccccc4)cc3c2c1C has an IC50 of 970 nM. For Cn1cncc1C(=O)Nc1cccc(-c2cccc(-c3nc4ccc(C(F)(F)F)cc4[nH]3)c2)c1, the IC50 was 200 nM. COC(=O)C(=O)c1c(-c2ccccc2)c(-c2ccc(OC)c(OC)c2)c2c3cc(OC)c(OC)cc3ccn12 gave an IC50 of 640 nM. For COc1cc(-c2cnc(N)c(-c3nc4ccccc4[nH]3)c2)cc(OC)c1OC, the IC50 was 190 nM. With N#Cc1ccc2c(c1)CN(C1CCC(NC(=O)/C=C/c3cc(C(F)(F)F)cc(C(F)(F)F)c3)CC1)CCC2 (centres undefined) the IC50 was 1390 nM. For COc1ccc2ncc(F)c(CCN3CCC(CNCc4cccc5c4OCO5)CC3)c2n1, the IC50 was 930 nM. Compound O=C(NCCCCCN1CCC(c2c[nH]c3ccccc23)CC1)c1ccc(-c2cccnc2)cc1 has an IC50 of 1030 nM. COc1ccc2nccc([C@@H](O)CN3CCC(NCCOc4cccc(F)c4F)CC3)c2c1 was tested, and the IC50 was 240 nM. CC(C(=O)Nc1ccc(Br)cc1Br)N1CCN(C(=O)c2ccco2)CC1 (centres undefined) gave an IC50 of 750 nM. In the case of CCCc1ccc(NC(=O)c2ccc(CN3CCCN(Cc4cccc(O)c4)CC3)cc2)cc1, the IC50 is reported as 400 nM. Compound Cc1cc(N[C@@H](CC(C)C)C(=O)NCCOc2ccccc2)nc(NCC2CCCCC2)n1 has an IC50 of 970 nM.
